Measurements reported in patent publication US7396837B2, “Antitumoral analogs of lamellarins” (Pharma Mar, S.A.U., priority 2002, dated 2008).
Read-outs that look alike come from different tables or passages of the source.

How the values were obtained:
Assay type in all cases: cell-based
DU-145 = assay: SRB colorimetric cell growth inhibition assay, DU-145; conditions: Homo sapiens; for GI50: GI=growth inhibition, read-out: GI50 DU-145; for CC50: LC=cell killing (cytotoxic effect); for IC (TGI): TGI=total growth inhibition (cytostatic effect), read-out: TGI DU-145
Outline: (§1)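 Cells are kept under uninterrupted exposure to compound. Staining with sulforhodamine B then measures cell growth and viability. Triplicate data give mean ± SD, from which growth inhibition, total growth inhibition and lethal concentration values follow.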

IGROV = assay: SRB colorimetric cell growth inhibition assay, IGROV; conditions: Homo sapiens, IGROV; for GI50: GI=growth inhibition, read-out: GI50 IGROV; for CC50: LC=cell killing (cytotoxic effect); for IC (TGI): TGI=total growth inhibition (cytostatic effect), read-out: TGI IGROV
Outline: as §1

A-549 = assay: SRB colorimetric cell growth inhibition assay, A-549; conditions: Homo sapiens; for GI50: GI=growth inhibition, read-out: GI50 A-549; for CC50: LC=cell killing (cytotoxic effect); for IC (TGI): TGI=total growth inhibition (cytostatic effect), read-out: TGI A-549
Outline: as §1

HT-29 = assay: SRB colorimetric cell growth inhibition assay, HT-29; conditions: Homo sapiens; for GI50: GI=growth inhibition, read-out: GI50 HT-29; for CC50: LC=cell killing (cytotoxic effect); for IC (TGI): TGI=total growth inhibition (cytostatic effect), read-out: TGI HT-29
Outline: as §1

LNCaP = assay: SRB colorimetric cell growth inhibition assay, LNCaP; conditions: Homo sapiens, LNCaP, LN-caP; for GI50: GI=growth inhibition, read-out: GI50 LN-caP; for CC50: LC=cell killing (cytotoxic effect), read-out: LC50 LN-caP; for IC (TGI): TGI=total growth inhibition (cytostatic effect), read-out: TGI LN-caP
Outline: as §1

LoVo = assay: SRB colorimetric cell growth inhibition assay, LoVo; conditions: Homo sapiens, LoVo; for GI50: GI=growth inhibition, read-out: GI50 LOVO; for CC50: LC=cell killing (cytotoxic effect); for IC (TGI): TGI=total growth inhibition (cytostatic effect), read-out: TGI LOVO
Outline: as §1

LoVo-Dox = assay: SRB colorimetric cell growth inhibition assay, LoVo-Dox (MDR); conditions: Homo sapiens; for GI50: GI=growth inhibition, read-out: GI50 LOVO-DOX; for CC50: LC=cell killing (cytotoxic effect); for IC (TGI): TGI=total growth inhibition (cytostatic effect), read-out: TGI LOVO-DOX
Outline: as §1

SK-MEL-28 = assay: SRB colorimetric cell growth inhibition assay, SK-MEL-28
Outline: as §1

K-562 = assay: SRB colorimetric cell growth inhibition assay, K-562; conditions: Homo sapiens; for GI50: GI=growth inhibition, read-out: GI50 K-562; for CC50: LC=cell killing (cytotoxic effect); for IC (TGI): TGI=total growth inhibition (cytostatic effect), read-out: TGI K-562
Outline: as §1

IGROV-ET = assay: SRB colorimetric cell growth inhibition assay, IGROV-ET (ET-743 resistant); conditions: Homo sapiens; for GI50: GI=growth inhibition, read-out: GI50 IGROV-ET; for CC50: LC=cell killing (cytotoxic effect); for IC (TGI): TGI=total growth inhibition (cytostatic effect), read-out: TGI IGROV-ET
Outline: as §1

SKOV-3 = assay: SRB colorimetric cell growth inhibition assay, SKOV-3; conditions: Homo sapiens; for GI50: SK-OV-3, SKOV-3, GI=growth inhibition, read-out: GI50 SKOV-3; for IC (TGI): TGI=total growth inhibition (cytostatic effect), read-out: TGI SKOV-3
Text: Inhibition of Cell Growth by Colorimetric Assay.
A colorimetric type of assay, using sulforhodamine B (SRB) reaction has been adapted for a quantitative measurement of cell growth and viability (following the technique described by P. A. Skehan, et al., J. Natl. Cancer Inst. 1990, 82, 1107-1112).
This form of assay employs 96 well cell culture microplates of 9 mm diameter (T. Mosmann et al., J. of Immunological Methods 1983, 65, 55-63; G. T. Faircloth et al., J. of Tissue and Culture Methods 1988, 11, 201-205).
Most of the cell lines are obtained from American Type Culture Collection (ATCC) derived from different human cancer types.
The values for mean +/− SD of data from triplicate wells are calculated. Some parameters for cellular responses can be calculated: GI=growth inhibition, TGI=total growth inhibition (cytostatic effect) and LC=cell killing (cytotoxic effect).

PANC-1 = assay: SRB colorimetric cell growth inhibition assay, PANC-1; conditions: Homo sapiens; for GI50: GI=growth inhibition, read-out: GI50 PANC-1; for CC50: LC=cell killing (cytotoxic effect); for IC (TGI): TGI=total growth inhibition (cytostatic effect), read-out: TGI PANC-1
Outline: as §1

SK-BR-3 = assay: SRB colorimetric cell growth inhibition assay, SK-BR-3; conditions: Homo sapiens; for GI50: GI=growth inhibition, read-out: GI50 SK-BR-3; for CC50: LC=cell killing (cytotoxic effect); for IC (TGI): TGI=total growth inhibition (cytostatic effect), read-out: TGI SK-BR-3
Outline: as §1

[1] = DU-145, DU-145, read-out: LC50 DU-145
[2] = A549, A-549, read-out: LC50 A-549
[3] = HT-29, HT-29, read-out: LC50 HT-29
[4] = LOVO-DOX, read-out: LC50 LOVO-DOX
[5] = Homo sapiens, SK-MEL-28, MEL-28; GI=growth inhibition; read-out: GI50 MEL-28
[6] = Homo sapiens, SK-MEL-28, MEL-28; LC=cell killing (cytotoxic effect); read-out: LC50 MEL-28
[7] = Homo sapiens, SK-MEL-28, MEL-28; TGI=total growth inhibition (cytostatic effect); read-out: TGI MEL-28
[8] = K562, K-562, read-out: LC50 K-562
[9] = IGROV-ET, read-out: LC50 IGROV-ET
[10] = SK-OV-3, SKOV-3, LC=cell killing (cytotoxic effect), read-out: LC50 SKOV-3
[11] = PANC-1, PANC-1, read-out: LC50 PANC-1
[12] = SK-BR-3, SK-BR-3, read-out: LC50 SK-BR-3
[13] = Homo sapiens, SK-MEL-28; MEL-28; TGI=total growth inhibition (cytostatic effect); read-out: TGI MEL-28

SMILES	GI50 (DU-145; DU-145, DU-145) [µM]	IC (TGI) (DU-145; DU-145, DU-145) [µM]	GI50 (IGROV) [µM]	IC (TGI) (IGROV) [µM]	GI50 (A-549; A549, A-549) [µM]	IC (TGI) (A-549; A549, A-549) [µM]	GI50 (LoVo) [µM]	IC (TGI) (LoVo) [µM]	GI50 (LoVo-Dox; LOVO-DOX) [µM]	IC (TGI) (LoVo-Dox; LOVO-DOX) [µM]	GI50 (SK-MEL-28; [5]) [µM]	GI50 (K-562; K562, K-562) [µM]	IC (TGI) (K-562; K562, K-562) [µM]	GI50 (IGROV-ET; IGROV-ET) [µM]	IC (TGI) (IGROV-ET; IGROV-ET) [µM]	GI50 (SKOV-3) [µM]	IC (TGI) (SKOV-3; SK-OV-3, SKOV-3) [µM]	GI50 (PANC-1; PANC-1, PANC-1) [µM]	IC (TGI) (PANC-1; PANC-1, PANC-1) [µM]	GI50 (SK-BR-3; SK-BR-3, SK-BR-3) [µM]	other results
COc1cc(-c2c3n(c4c(=O)oc5cc(OC(=O)[C@H](C)N)c(OC)cc5c24)CCc2cc(OC(=O)[C@H](C)N)c(OC)cc2-3)ccc1OC(=O)[C@H](C)N [Compound 42]	0.365	2.28	0.185	0.56	0.735	2.99	0.463	3.63	0.395	2.32	1.23	0.313	1.79	0.238	0.678	1.24	4.44	0.732	4.06	2	CC50 (DU-145; [1]): 9.46 µM; CC50 (IGROV; read-out: LC50 IGROV): 2.83 µM; CC50 (A-549; [2]): 9.46 µM; GI50 (HT-29; HT-29, HT-29): 3.91 µM; CC50 (HT-29; [3]): 9.46 µM; IC (TGI) (HT-29; HT-29, HT-29): 9.46 µM; GI50 (LNCaP): 0.377 µM; CC50 (LNCaP): 4.91 µM; IC (TGI) (LNCaP): 1.41 µM; CC50 (LoVo; read-out: LC50 LOVO): 9.46 µM; CC50 (LoVo-Dox; [4]): 9.46 µM; CC50 (SK-MEL-28; [6]): 8.94 µM; IC (TGI) (SK-MEL-28; [7]): 3.32 µM; CC50 (K-562; [8]): 5.42 µM; CC50 (IGROV-ET; [9]): 6.62 µM; CC50 (SKOV-3; [10]): 9.46 µM; CC50 (PANC-1; [11]): 9.46 µM; CC50 (SK-BR-3; [12]): 8.04 µM; IC (TGI) (SK-BR-3; SK-BR-3, SK-BR-3): 4.01 µM
COc1cc(-c2c3c4cc(OC)c(OC(=O)[C@@H](N)CC(C)C)cc4oc(=O)c3n3ccc4c(OC(=O)[C@@H](N)CC(C)C)c(OC)c(OC)cc4c23)ccc1OC(=O)[C@@H](N)CC(C)C [Compound 45]	0.105	0.549	1.57	4.12	4.35	11.5	0.771	6.71	0.778	4.51	0.898	0.315	1.73	2.58	8.07	0.175	2.2	2.03	9.75	0.414	CC50 (DU-145; [1]): 11.5 µM; CC50 (IGROV; read-out: LC50 IGROV): 10.9 µM; CC50 (A-549; [2]): 11.5 µM; CC50 (HT-29; [3]): 11.5 µM; GI50 (HT-29; HT-29): 11.5 µM; IC (TGI) (HT-29; HT-29): 11.5 µM; CC50 (LoVo; read-out: LC50 LOVO): 11.5 µM; CC50 (LoVo-Dox; [4]): 11.5 µM; CC50 (SK-MEL-28; [6]): 11.5 µM; IC (TGI) (SK-MEL-28; [13]): 11.5 µM; CC50 (K-562; [8]): 8.79 µM; CC50 (IGROV-ET; [9]): 11.5 µM; CC50 (SKOV-3; SK-OV-3, read-out: LC50 SKOV-3): 11.5 µM; CC50 (PANC-1; [11]): 11.5 µM; CC50 (SK-BR-3; [12]): 11.5 µM; IC (TGI) (SK-BR-3; SK-BR-3, SK-BR-3): 1.58 µM
COc1cc(-c2c3c4cc(OC)c(OC(=O)[C@H](C)NC(=O)OC(C)(C)C)cc4oc(=O)c3n3ccc4cc(OC(=O)[C@H](C)NC(=O)OC(C)(C)C)c(OC)cc4c23)ccc1OC(=O)[C@H](C)NC(=O)OC(C)(C)C [Compound 41]	0.679	9.87	0.0917	0.492	2.42	8.01	3.31	9.87	4.2	9.87	1.86	1.77	3.76	0.188	0.852	5.95	9.87	2.48	9.87	1.62	CC50 (DU-145; [1]): 9.87 µM; CC50 (IGROV; read-out: LC50 IGROV): 4.7 µM; CC50 (A-549; [2]): 9.87 µM; GI50 (HT-29; HT-29, HT-29): 3.24 µM; CC50 (HT-29; [3]): 9.87 µM; IC (TGI) (HT-29; HT-29, HT-29): 8.89 µM; GI50 (LNCaP): 2.1 µM; CC50 (LNCaP): 9.87 µM; IC (TGI) (LNCaP): 6.47 µM; CC50 (LoVo; read-out: LC50 LOVO): 9.87 µM; CC50 (LoVo-Dox; [4]): 9.87 µM; CC50 (SK-MEL-28; [6]): 9.43 µM; IC (TGI) (SK-MEL-28; [7]): 4.19 µM; CC50 (K-562; [8]): 8.02 µM; CC50 (IGROV-ET; [9]): 9.87 µM; CC50 (SKOV-3; [10]): 9.87 µM; CC50 (PANC-1; [11]): 9.87 µM; CC50 (SK-BR-3; [12]): 9.87 µM; IC (TGI) (SK-BR-3; SK-BR-3, SK-BR-3): 4.85 µM
COc1cc(-c2c3c4cc(OC)c(OC(=O)[C@H](N)C(C)C)cc4oc(=O)c3n3ccc4c(OC(=O)[C@H](N)C(C)C)c(OC)c(OC)cc4c23)ccc1OC(=O)[C@H](N)C(C)C [Compound 43]	0.0574	0.301	0.418	2.14	1.9	12.1	0.635	3.72	0.937	3.14	0.498	0.118	0.565	0.098	3.24	0.146	1.14	1.49	6.57	0.212	CC50 (DU-145; DU-145, read-out: LC50 DU-145, DU-145): 12.1 µM; CC50 (IGROV; read-out: LC50 IGROV, IGROV): 8.94 µM; CC50 (A-549; A549, read-out: LC50 A-549, A-549): 12.1 µM; CC50 (HT-29; HT-29, read-out: LC50 HT-29, HT-29): 12.1 µM; GI50 (HT-29; HT-29): 12.1 µM; IC (TGI) (HT-29; HT-29): 12.1 µM; CC50 (LoVo; read-out: LC50 LOVO, LOVO): 12.1 µM; CC50 (LoVo-Dox; read-out: LC50 LOVO-DOX, LOVO-DOX): 9.84 µM; CC50 (SK-MEL-28; Homo sapiens, SK-MEL-28, read-out: LC50 MEL-28, MEL-28; LC=cell killing (cytotoxic effect)): 12.1 µM; IC (TGI) (SK-MEL-28; [13]): 12.1 µM; CC50 (K-562; K562, read-out: LC50 K-562, K-562): 12.1 µM; CC50 (IGROV-ET; read-out: LC50 IGROV-ET, IGROV-ET): 12.1 µM; CC50 (SKOV-3; SK-OV-3, read-out: LC50 SKOV-3): 12.1 µM; CC50 (PANC-1; PANC-1, read-out: LC50 PANC-1, PANC-1): 12.1 µM; IC (TGI) (SK-BR-3; SK-BR-3, SK-BR-3): 1.1 µM; CC50 (SK-BR-3; SK-BR-3, read-out: LC50 SK-BR-3, SK-BR-3): 7.9 µM
